Measured values: US20260373497A1, “MOLECULAR MACHINES STIMULATE INTERCELLULAR CALCIUM WAVES AND CAUSE MUSCLE CONTRACTION” (William Marsh Rice University, priority 2022, published 2026)

Key:
HeLa cells = assay: MM-induced calcium responses in HeLa cells; assay type: cell-based; settings: 400 nm, 250 ms, 3.2×10^2 W cm^−2
Excerpt: FIGS. 12A & 12B—ICW in HeLa cells after stimulation with MM 1 and light. (a) Confocal images of HeLa cells treated with MM 1 (blue) and Fluo-4 calcium tracking dye (green). The white circle in the bottom-left image depicts the area to which light stimulus was delivered. Scale bar is 50 μm and applies to all images. (b) Fluo-4 fluorescence traces of HeLa cells treated with MM 1 and stimulated with 250 ms pulse of 400 nm light delivered to a 5 μm diameter circular region of interest at 3.2×10^2 W cm^−2 stimulation power.
Cell Culture and Preparation of Cells for Microscopy: HEK293 cells were chosen as the principal model system due to their prevalence in electrophysiological interrogation. […] HEK293 cells, HeLa cells, and N2A cells were cultured in DMEM (10% FBS, 1% penicillin/streptomycin) and passaged at <90% confluence. […]
In Vitro Imaging and Stimulation: Cells were loaded in a Nikon A1-Rsi confocal system mounted on a widefield Ti-E fluorescence microscope. […] Laser stimulation for in vitro experiments was performed with a 400 nm photodiode laser (Coherent OBIS™ LX SF) operating in a fluorescence-recovery-after-photobleaching (FRAP) experiment mode, delivering up to 6.4×10^2 W cm^−2 at sample level. […] Fluo-4 fluorescence was collected for 30 s before and 2 min after stimulation. […]

C2C12 myoblasts = assay: Localization of MM 1 in C2C12 cells; assay type: cell-based, mouse; settings: 45 minutes of incubation

## CC1Cc2ccc3ccccc3c2C1=C1c2ccccc2Sc2cc(NCCN(C)C)ccc21 (centres unmarked) [MM 1]
HeLa cells
  Calcium responses induced by MM 1 actuation: also observed
C2C12 myoblasts
  Cell permeation: permeate through the cell membrane after 45 minutes of incubation
